“Also recorded” adds a separate entry of the source.
What was measured:
[1] = molecular target: T1, α-Glucosidase (Saccharomyces cerevisiae, EC3.2.1.20) (Saccharomyces cerevisiae, UniProt P53341); assay: In vitro α-glucosidase inhibition assay; type: biochemical
T1 construct: purchased Sigma-Aldrich
Method: α-Glucosidase (Saccharomyces cerevisiae, EC3.2.1.20, 20 U/mg) and the substrate, […] (p-NPG) were purchased from Sigma-Aldrich and the assay was performed exactly according to our previous report. In this respect, various concentrations of each synthesized compound dissolved in DMSO, were added to potassium phosphate buffer (50 mM, pH 6.8) including enzyme (at final concentration of 0.1 U/mL), in a 96-well plate. After a 10-min incubation at 37 °C, p-NPG was added to each well to achieve final concentration of 4 mM. Then, the plate was re-incubated at 37 °C for 20 min. It should be noted that the final concentration of DMSO in each enzymatic solution was 10%. Finally, the change in the absorbance was measured at 405 nm using spectrophotometer (Synergy HTX Multi-Mode Microplate Reader–BioTek, Germany). […] The percentage of inhibition for compounds and control was calculated using Eq. (1):1 Inhibition%=ODnegative control-ODsample/ODnegative control×100OD=optical density at 405 nm.
IC50 values were calculated from the nonlinear regression curve using the Logit method.

[2] = molecular target: T2, α-glucosidase (Saccharomyces cerevisiae, UniProt P53341); assay: Enzyme kinetic studies (Lineweaver–Burk plot); type: biochemical; settings: for Ki: p-NPG 2–16 mM
T2 construct: purchased Sigma-Aldrich
T2 sequence (P53341 whole entry): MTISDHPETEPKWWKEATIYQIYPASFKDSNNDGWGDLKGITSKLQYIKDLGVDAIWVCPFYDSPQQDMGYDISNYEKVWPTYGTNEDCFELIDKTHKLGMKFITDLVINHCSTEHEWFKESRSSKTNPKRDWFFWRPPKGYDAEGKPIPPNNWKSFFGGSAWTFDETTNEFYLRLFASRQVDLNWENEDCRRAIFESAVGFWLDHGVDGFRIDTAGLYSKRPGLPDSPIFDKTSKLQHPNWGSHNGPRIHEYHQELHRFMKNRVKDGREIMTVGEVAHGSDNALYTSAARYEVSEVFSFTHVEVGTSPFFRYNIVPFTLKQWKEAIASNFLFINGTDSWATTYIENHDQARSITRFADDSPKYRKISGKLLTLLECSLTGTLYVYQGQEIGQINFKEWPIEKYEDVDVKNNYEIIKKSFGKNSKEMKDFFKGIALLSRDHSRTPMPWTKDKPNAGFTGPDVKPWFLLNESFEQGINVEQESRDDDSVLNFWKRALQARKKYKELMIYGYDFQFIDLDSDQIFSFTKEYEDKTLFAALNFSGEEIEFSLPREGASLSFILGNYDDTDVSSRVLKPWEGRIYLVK
Source text: A Lineweaver–Burk plot was generated to identify the type of inhibition and the Michaelis–Menten constant.

[3] = molecular target: T2, α-glucosidase; settings: cited from earlier work
[4] = molecular target: T2, α-glucosidase; assay: Fluorescence spectroscopy measurements; type: binding; settings: 9e 0–1.0 μM, excitation 280 nm, emission maximum 340 nm, phosphate buffer 50 mM pH 6.8
Method: Compound 9e at different concentrations (0–1.0 µM) was added into the 3 mL solution containing a fixed amount of α-glucosidase (0.1 U/mL). All mixtures were held for 10 min to equilibrate before measurements. Then, the fluorescence emission spectra were measured from 300 to 450 nm at the excitation wavelength of 280 nm on a Synergy HTX multi-mode reader (Biotek Instruments, Winooski, VT, USA) equipped with a 1.0 cm quartz cell holder. The fluorescence spectra of the buffer containing compound 9e in the absence of the enzyme were subtracted as the background fluorescence.

[5] = molecular target: T2, α-glucosidase; assay: Thermodynamic analysis (thermal denaturation followed by fluorescence)
Method: Thermodynamic analysis was performed as described by Mojtabavi et al., the fluorescent intensity data were plotted as a function of temperature, and the thermodynamic profile was computed[48],[49]. Therefore, the denatured fraction (FD) of protein was calculated from Eq. (2), assuming a two-state mechanism for the protein denaturation:2 FD=YN-Yobs/YN-YD.
In Eq. (2), Yobs, YN, and YD are the observed […] characteristics of a fully native and denatured conformation, respectively. Equation (3) was used to calculate the apparent equilibrium constant (K) for a reversible denaturation process between native and denatured protein states:3 K=FD/1-FD=Yobs-YD/YN-YD.
The standard Gibbs free energy change (ΔG°) for protein denaturation is given by the Eq. (4):4 ΔG^^∘=GD^∘-GN^∘=-RTlnK, where T and R are the absolute temperature and the universal gas constant, respectively. The Gibbs free energy (ΔG°) is the most valuable standard of protein conformational stability in thermal denaturation. The integrated Gibbs–Helmholtz equation was utilized for measuring changes in the Gibbs energy of a system as a function of temperature (Eq. (5)):5 ΔG^^∘=ΔHm^∘1-T/Tm-ΔCpTm-T+TLnT/Tm, where ΔCp is the heat capacity of protein denaturation. The ΔCp (11.6 kJ/mol K) of the α-glucosidase denaturation was taken from van der Kamp et al. report. In thermal denaturation, Tm is the temperature at which the protein is half denatured. ΔH°m and ΔS°m are the standard enthalpy and entropy of denaturation. The standard entropy was calculated from a relation between the standard […] of denaturation as bellow: ΔH=TmΔS.

T1 sequence (P53341 whole entry): as above

Work on `Cc1ccc(Cn2cc(COc3ccc(C=NNC(=O)CC#N)cc3)nn2)cc1` [Compound 9n, 2-Cyano-N′-(4-((1-(4-methylbenzyl)-1H-1,2,3-triazol-4-yl)methoxy)benzylidene)acetohydrazide] yielded an IC50 [1] of 82.4 ± 1.3 µM.
For `N#CCC(=O)NN=Cc1ccc(OCc2cn(Cc3ccc(Cl)cc3)nn2)cc1` [Compound 9l, N′-(4-((1-(4-chlorobenzyl)-1H-1,2,3-triazol-4-yl)methoxy)benzylidene)-2-cyanoacetohydrazide], the type of inhibition [2] was “competitive inhibition”, the Ki [2] was 85 µM and the IC50 [1] was 21.66 ± 0.12 µM.
With `N#CCC(=O)NN=Cc1ccc(OCc2cn(Cc3ccc(F)cc3)nn2)cc1` [Compound 9j, 2-Cyano-N′-(4-((1-(4-fluorobenzyl)-1H-1,2,3-triazol-4-yl)methoxy)benzylidene)acetohydrazide] the IC50 [1] was 56.6 ± 0.7 µM.
For `O=c1oc2ccccc2c(O)c1C(c1ccc(OCc2cn(Cc3ccccc3Cl)nn2)cc1)c1c(O)c2ccccc2oc1=O` [Compound A], the mode of inhibition [3] is given as “competitive”.
In the case of `COc1cc(C=NNC(=O)CC#N)ccc1OCc1cn(Cc2ccc(Cl)cc2)nn1` [Compound 9e, N′-(4-((1-(4-chlorobenzyl)-1H-1,2,3-triazol-4-yl)methoxy)-3-methoxybenzylidene)-2-cyanoacetohydrazide], the type of inhibition [2] is reported as “uncompetitive inhibition; also recorded: uncompetitively”, the Ki [2] is reported as 0.24 µM and the IC50 [1] is reported as 1 ± 0.01 µM. For the same compound, the “fold better potency than the standard drug acarbose” value [1] was 754 fold, the “change of α-glucosidase fluorescence” value [4] was “significant increase in fluorescence intensity” and the “Tm of α-glucosidase” value ([5]; compound 9e 0.25 µM) was 316 K. The “ΔHm° of α-glucosidase denaturation” value ([5]; compound 9e 0.25 µM) was 22.58 kcal/mol, the “ΔSm° of α-glucosidase denaturation” value ([5]; compound 9e 0.25 µM) was 298.95 J mol^−1 K^−1 and the “Tm of α-glucosidase” value ([5]; compound 9e 0.50 µM) was 315 K. For the same compound, the “ΔHm° of α-glucosidase denaturation” value ([5]; compound 9e 0.50 µM) was 26.974 kcal/mol, the “ΔSm° of α-glucosidase denaturation” value ([5]; compound 9e 0.50 µM) was 358.28 J mol^−1 K^−1 and the “Tm of α-glucosidase” value ([5]; compound 9e 0.75 µM) was 313 K. The “ΔHm° of α-glucosidase denaturation” value ([5]; compound 9e 0.75 µM) was 42.326 kcal/mol, the “ΔSm° of α-glucosidase denaturation” value ([5]; compound 9e 0.75 µM) was 565.76 J mol^−1 K^−1 and the “Tm of α-glucosidase” value ([5]; compound 9e 1.0 µM) was 311 K. The “ΔHm° of α-glucosidase denaturation” value ([5]; compound 9e 1.0 µM) was 142.81 kcal/mol and the “ΔSm° of α-glucosidase denaturation” value ([5]; compound 9e 1.0 µM) was 1921.22 J mol^−1 K^−1.
Compound `COc1cc(C=NNC(=O)CC#N)ccc1OCc1cn(Cc2ccccc2)nn1` [Compound 9a, N′-(4-((1-benzyl-1H-1,2,3-triazol-4-yl)methoxy)-3-methoxybenzylidene)-2-cyanoacetohydrazide] has an IC50 [1] greater than 750 µM.
In the case of `CCc1ccc(NC(=O)Cn2cc(COc3ccc(-c4nc5ccccc5[nH]4)cc3)nn2)cc1` [B], the mode of inhibition [3] is listed as “competitive”.
For `COc1cc(C=NNC(=O)CC#N)ccc1OCc1cn(Cc2ccc(F)cc2)nn1` [Compound 9c, 2-Cyano-N′-(4-((1-(4-fluorobenzyl)-1H-1,2,3-triazol-4-yl)methoxy)-3-methoxybenzylidene)acetohydrazide], the IC50 [1] was 9.73 ± 0.3 µM.
`N#CCC(=O)NN=Cc1ccc(OCc2cn(Cc3ccccc3Cl)nn2)cc1` [Compound 9k, N′-(4-((1-(2-chlorobenzyl)-1H-1,2,3-triazol-4-yl)methoxy)benzylidene)-2-cyanoacetohydrazide] showed an IC50 [1] of 74.7 ± 2.8 µM.
`COc1cc(C=NNC(=O)CC#N)ccc1OCc1cn(Cc2ccccc2C)nn1` [Compound 9f, 2-Cyano-N′-(3-methoxy-4-((1-(2-methylbenzyl)-1H-1,2,3-triazol-4-yl)methoxy)benzylidene)acetohydrazide] gave an IC50 [1] of 28 ± 0.1 µM.
With `Cc1ccccc1Cn1cc(COc2ccc(C=NNC(=O)CC#N)cc2)nn1` [Compound 9m, 2-Cyano-N′-(4-((1-(2-methylbenzyl)-1H-1,2,3-triazol-4-yl)methoxy)benzylidene)acetohydrazide] the IC50 [1] was 11.3 ± 0.2 µM.
For `N#CCC(=O)NN=Cc1ccc(OCc2cn(Cc3ccccc3)nn2)cc1` [Compound 9h, N′-(4-((1-benzyl-1H-1,2,3-triazol-4-yl)methoxy)benzylidene)-2-cyanoacetohydrazide], the IC50 [1] was 271.2 ± 0.3 µM.
`COc1cc(C=NNC(=O)CC#N)ccc1OCc1cn(Cc2ccccc2Cl)nn1` [Compound 9d, N′-(4-((1-(2-chlorobenzyl)-1H-1,2,3-triazol-4-yl)methoxy)-3-methoxybenzylidene)-2-cyanoacetohydrazide] showed an IC50 [1] of 14 ± 0.8 µM.
Compound `COc1cc(C=NNC(=O)CC#N)ccc1OCc1cn(Cc2ccc(C)cc2)nn1` [Compound 9g, 2-Cyano-N′-(3-methoxy-4-((1-(4-methylbenzyl)-1H-1,2,3-triazol-4-yl)methoxy)benzylidene)acetohydrazide] has an IC50 [1] of 22.8 ± 0.6 µM.
For `O=C1Nc2ccccc2/C1=N/N=C/c1ccc(OCc2cn(Cc3ccccc3F)nn2)cc1` [Compound C], the “fold improvement in the inhibitory activity compared to acarbose” value [3] is listed as 46 fold.
For `COc1cc(C=NNC(=O)CC#N)ccc1OCc1cn(Cc2ccccc2F)nn1` [Compound 9b, 2-Cyano-N′-(4-((1-(2-fluorobenzyl)-1H-1,2,3-triazol-4-yl)methoxy)-3-methoxybenzylidene)acetohydrazide], the type of inhibition [2] was “uncompetitive inhibition; also recorded: uncompetitively”, the Ki [2] was 0.43 µM and the IC50 [1] was 1.5 ± 0.01 µM.
In the case of `N#CCC(=O)NN=Cc1ccc(OCc2cn(Cc3ccccc3F)nn2)cc1` [Compound 9i, 2-Cyano-N′-(4-((1-(2-fluorobenzyl)-1H-1,2,3-triazol-4-yl)methoxy)benzylidene)acetohydrazide], the type of inhibition [2] is reported as “competitive inhibition”, the Ki [2] is reported as 75 µM and the IC50 [1] is reported as 45.89 ± 0.1 µM.

From paper PMC9125976, “Cyanoacetohydrazide linked to 1,2,3-triazole derivatives: a new class of α-glucosidase inhibitors” (Scientific Reports, 2022)
